Data as given in patent US12071624B2, “Antisense oligonucleotide targeting ARL4C molecule, and nucleic acid drug using antisense oligonucleotide” (OSAKA UNIVERSITY, priority 2018, dated 2024).

What was measured:
Assay type in all cases: cell-based, human
ARL4C mRNA [1] = assay: Screening of ARL4C ASO knockdown efficiency by real-time PCR in A549 cells; details: screening of 38 types of ARL4C ASOs
Experimental: (§1) HLE cells, HCT116 cells, and A549 cells were transfected with 25 to 50 nM ASO and 10 to 20 nM siRNA using Lipofectamine 3000 (Invitrogen, Carlsbad, CA, USA) or RNAiMAX (Invitrogen). Transfected cells were used in the experiments 36 to 48 hours after the end of the transfection.
(§2) Cell migration assays and quantitative real-time PCR analyses were performed according to the methods reported by Fujii S et al. (Oncogene 2015; 34: 4834-44).
First, base sequences of 15-nucleotide ARL4C were selected based on the structure of ARL4C mRNA. From thousands of ARL4C ASO candidates, those that may cause hepatotoxicity were excluded, and 38 types of ARL4C ASOs (those other than ASO-1312, ASO-1450 and ASO-3223 among the ASOs in Table 1) were selected, by high-dimensional structure prediction of ARL4C mRNA. The ASOs used in this test were those in which all of the phosphodiester bonds were substituted with phosphorothioate bonds. Knockdown efficiencies of ARL4C ASOs in A549 cells (lung adenocarcinoma cells) were investigated by screening experiments using real-time PCR. It has been confirmed that the protein abundance of ARL4C in A549 cells is reduced by treatment with ARL4C siRNA. The ARL4C mRNA amounts in A549 cells treated with 38 types of ARL4C ASOs were measured, and the results are shown in (a) of FIG. 3.

ARL4C mRNA [2] = assay: ARL4C mRNA amount by real-time PCR in HLE cells
Experimental: as §1, §2
(§3) HLE cells and HCT116 cells were transfected with the above-described seven types of ARL4C ASOs and the control ASO at 25 nM, and the ARL4C mRNA amounts were measured by real-time PCR; the results thereof are shown in (a) of FIG. 4. […] In order to optimize the effect of these three types of ARL4C ASOs, four bases were added to each of these three types of ARL4C ASOs, whereby ASO-1312, ASO-1450, and ASO-3223 each of which consisted of 19 bases were produced. With these six types of ARL4C ASOs (ASO-1316, ASO-1312, ASO-1454, ASO-1450, ASO-3225, and ASO-3223), the knockdown effect on ARL4C was further studied.
HLE cells were transfected with ARL4C ASOs (ASO-1316, ASO-1312, ASO-1454, ASO-1450, ASO-3225, and ASO-3223) at 25 nM each, and the ARL4C mRNA amounts were measured by real-time PCR; the results are shown in (c) of FIG. 3. In addition, HLE cells were transfected with ARL4C ASOs (ASO-1316, ASO-1312, ASO-3225, and ASO-3223) at 0.5 to 25 nM each, and the ARL4C mRNA amounts were measured by real-time PCR; the results are shown in (b) of FIG. 4.
HLE cells were treated with 10 μM PD184161 or 10 nM CTNNB1 siRNA (siRNA against CTNNB1), and the ARL4C mRNA amount was measured by real-time PCR; the results are shown in (a) of FIG. 5. In addition, HLE cells were treated with 10 nM CTNNB1 siRNA (siRNA against CTNNB1), and the ARL4C mRNA amount was measured by real-time PCR; the results thereof are shown in (a) of FIG. 6. PD184161 is a compound that inhibits MEK without knocking down […].

ARL4C mRNA [3] = assay: ARL4C mRNA amount by real-time PCR in HCT116 cells; details: HCT116 cells transfected at 25 nM
Experimental: as §1, §2, §3

PIK3CD mRNA [4] = assay: PIK3CD mRNA amount by real-time PCR in HLE cells; details: HLE cells treated with 25 μM SecinH3
Experimental: as §1, §2
HLE cells were treated with 25 μM SecinH3 (inhibitor of Arf nucleotide-binding site opener (ARNO)) or 50 μM NSC23766 (Rac inhibitor), and the amount of PIK3CD mRNA was measured by real-time PCR; the results are shown in (c) of FIG. 5.
HLE cells were transfected with control ASO, ASO-1316, and ASO-3223 at 25 nM, and the PIK3CD mRNA amount was measured by real-time PCR; the results are shown in (g) of FIG. 5. In addition, an anti-phosphorylated AKT (pAKT S473) antibody and an anti-AKT antibody as probes were caused to act on cell lysates of HLE cells transfected with control ASO, ASO-1316, and ASO-3223; the results are shown in (h) of FIG. 5.

PIK3CD mRNA [5] = assay: PIK3CD mRNA amount by real-time PCR in ARL4C-expressing HepG2 cells; details: ARL4C-transduced HepG2 cells, 25 μM SecinH3 or 50 μM NSC23766

## ASO-3225: 15-mer ARL4C ASO of Table 1, SEQ ID NO 35 (antisense NNNTTACAGTATNNG; AmNA modifications; Amido-bridged nucleic acid (AmNA); modified_base (1)..(1) n is Adenine having a structure of AmNA (2′,4′- bridged nucleotide in which R is a methyl group); (1)..(3) n is a, c, g, or t; modified_base (2)..(2) n is Guanine having a structure of AmNA (2′,4′- bridged nucleotide in which R is a methyl group); modified_base (3)..(3) n is Guanine having a structure of AmNA (2′,4′- bridged nucleotide in w)
ARL4C mRNA [1]
  knockdown efficiency (ARL4C mRNA amount): high knockdown efficiencies
ARL4C mRNA [2]; HLE cells transfected at 25 nM
  ARL4C mRNA amount: reduced the ARL4C mRNA amount
ARL4C mRNA [3]
  ARL4C mRNA amount: reduced the ARL4C mRNA amount

## ASO-1454: 15-mer ARL4C ASO of Table 1, SEQ ID NO 14 (antisense NNNACAAATGAANNT; AmNA modifications; Amido-bridged nucleic acid (AmNA); modified_base (1)..(1) n is Adenine having a structure of AmNA (2′,4′- bridged nucleotide in which R is a methyl group); (1)..(3) n is a, c, g, or t; modified_base (2)..(2) n is Guanine having a structure of AmNA (2′,4′- bridged nucleotide in which R is a methyl group); modified_base (3)..(3) n is Guanine having a structure of AmNA (2′,4′- bridged nucleotide in w)
ARL4C mRNA [1]
  knockdown efficiency (ARL4C mRNA amount): high knockdown efficiencies
ARL4C mRNA [2]; HLE cells transfected at 25 nM
  ARL4C mRNA amount: reduced the ARL4C mRNA amount
ARL4C mRNA [3]
  ARL4C mRNA amount: reduced the ARL4C mRNA amount

## ASO-793: 15-mer ARL4C ASO of Table 1, SEQ ID NO 9 (antisense NNNTGGTCACCTNNT; AmNA modifications; Amido-bridged nucleic acid (AmNA); modified_base (1)..(1) n is Adenine having a structure of AmNA (2′,4′- bridged nucleotide in which R is a methyl group); (1)..(3) n is a, c, g, or t; modified_base (2)..(2) n is 5-methylcytosine having a structure of AmNA (2′,4′-bridged nucleotide in which R is a methyl group); modified_base (3)..(3) n is Thymine having a structure of AmNA (2′,4′- bridged nucleot)
ARL4C mRNA [1]
  knockdown efficiency (ARL4C mRNA amount): high knockdown efficiencies

## ASO-1065: 15-mer ARL4C ASO of Table 1, SEQ ID NO 11 (antisense NNNAAATCAGACNNC; AmNA modifications; Amido-bridged nucleic acid (AmNA); modified_base (1)..(1) n is Guanine having a structure of AmNA (2′,4′- bridged nucleotide in which R is a methyl group); (1)..(3) n is a, c, g, or t; modified_base (2)..(2) n is Guanine having a structure of AmNA (2′,4′- bridged nucleotide in which R is a methyl group); modified_base (3)..(3) n is Thymine having a structure of AmNA (2′,4′- bridged nucleotide in w)
ARL4C mRNA [1]
  knockdown efficiency (ARL4C mRNA amount): high knockdown efficiencies

## ASO-650: 15-mer ARL4C ASO of Table 1, SEQ ID NO 8 (antisense NNNTGGCAGCTGNNG; AmNA modifications; Amido-bridged nucleic acid (AmNA); modified_base (1)..(1) n is Adenine having a structure of AmNA (2′,4′- bridged nucleotide in which R is a methyl group); (1)..(3) n is a, c, g, or t; modified_base (2)..(2) n is Adenine having a structure of AmNA (2′,4′- bridged nucleotide in which R is a methyl group); modified_base (3)..(3) n is Guanine having a structure of AmNA (2′,4′- bridged nucleotide in w)
ARL4C mRNA [1]
  knockdown efficiency (ARL4C mRNA amount): high knockdown efficiencies

## COc1nc(-c2ccc3c(c2)OCO3)n(-c2ccc(NC(=O)CSc3ccccc3)cc2)n1 [SecinH3, reference compound]
PIK3CD mRNA [4]
  PIK3CD mRNA amount: reduced the PIK3CD mRNA amount
PIK3CD mRNA [5]
  PIK3CD mRNA amount: suppressed an increase in the PIK3CD mRNA amount

## CCN(CC)CCCC(C)Nc1nc(C)cc(Nc2ccc3nc(C)cc(N)c3c2)n1 (centres unmarked) [NSC23766]
PIK3CD mRNA [5]
  PIK3CD mRNA amount: suppressed an increase in the PIK3CD mRNA amount

## O=C(NOCC1CC1)c1cc(Br)c(F)c(F)c1Nc1ccc(I)cc1Cl [PD184161, reference compound]
ARL4C mRNA [2]; HLE cells treated with 10 μM PD184161
  ARL4C mRNA amount: reduced ARL4C mRNA amount

## ASO-986: 15-mer ARL4C ASO of Table 1, SEQ ID NO 10 (antisense NNNTCATAGAGCNNG; AmNA modifications; Amido-bridged nucleic acid (AmNA); modified_base (1)..(1) n is Adenine having a structure of AmNA (2′,4′- bridged nucleotide in which R is a methyl group); (1)..(3) n is a, c, g, or t; modified_base (2)..(2) n is 5-methylcytosine having a structure of AmNA (2′,4′-bridged nucleotide in which R is a methyl group); modified_base (3)..(3) n is Thymine having a structure of AmNA (2′,4′- bridged nucleot)
ARL4C mRNA [1]
  knockdown efficiency (ARL4C mRNA amount): high knockdown efficiencies
